The record followed here is patent publication US4597901A, “β-indolylalanyl or β-indolylglycinyl vasopressin antagonists” (SmithKline Beckman Corporation, priority 1984, dated 1986).

*1 amine or outer side, *2 acyl side, *3 side chain or, on linkers, in order; H or OH if unused. Where a SMILES comes first, the peptide text is derived from it. Bridges are numbered along the chain shown (N, C = ends). [ ]: non-standard residue; d: D form. The star is where a group is joined. X1 = O=C(CC1(S[*:2])CCCCC1)[*:1]; For = O=C*

Sequence of vasopressin receptors [V2 -receptors] (P32307 whole entry): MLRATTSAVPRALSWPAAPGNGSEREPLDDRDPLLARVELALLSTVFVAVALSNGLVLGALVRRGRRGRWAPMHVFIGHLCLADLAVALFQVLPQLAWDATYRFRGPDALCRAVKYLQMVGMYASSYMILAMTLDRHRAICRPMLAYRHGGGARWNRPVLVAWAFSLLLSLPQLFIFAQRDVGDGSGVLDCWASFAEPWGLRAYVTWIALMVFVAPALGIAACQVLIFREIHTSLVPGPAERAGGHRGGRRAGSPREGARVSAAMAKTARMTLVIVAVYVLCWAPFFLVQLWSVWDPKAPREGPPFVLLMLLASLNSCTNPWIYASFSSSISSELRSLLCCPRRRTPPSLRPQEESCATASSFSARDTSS

This experiment has as its target vasopressin receptors [V2 -receptors] (Sus scrofa, UniProt P32307). The experiment in a line: biochemical. The source says:
Details of the in vitro protocols are in F. L. Stassen et al., J. of Pharm. Exp. Ther. 233, 50-54 (1982) but the calculations of cyclase activity and binding potential at the receptor site are as follows:
Test Procedure for Binding Assay:
These values represent total and non-specific binding, respectively.
In the case of `CC(C)[C@@H]1NC(=O)[C@H](Cc2ccccc2)NC(=O)[C@@H](Cc2cn(C=O)c3ccccc23)NC(=O)CC2(CCCCC2)SSC[C@@H](C(=O)N2CCC[C@H]2C(=O)N[C@@H](CCCNC(=N)N)C(=O)NCC(N)=O)NC(=O)[C@H](CC(N)=O)NC1=O` [D-Trp (For), [1-(β-mercapto-β,β-cyclopentamethylenepropionic acid)-2-D-tryptophan-(N-formyl)-4-valine-8-arginine]vasopressin] ([dW](For)FVNCPRG-NH2; linker N-5 via X1), the Kb was 0.078 µM.
In turn, `CC(C)[C@@H]1NC(=O)[C@H](Cc2ccccc2)NC(=O)[C@H](Cc2c[nH]c3ccccc23)NC(=O)CC2(CCCCC2)SSC[C@@H](C(=O)N2CCC[C@H]2C(=O)N[C@@H](CCCNC(=N)N)C(=O)NCC(N)=O)NC(=O)[C@H](CC(N)=O)NC1=O` [L-Trp] (WFVNCPRG-NH2; linker N-5 via X1) came in with a Kb of 2.1 µM.
The figure for `CC(C)[C@@H]1NC(=O)[C@H](Cc2ccccc2)NC(=O)[C@H](Cc2cn(C=O)c3ccccc23)NC(=O)CC2(CCCCC2)SSC[C@@H](C(=O)N2CCC[C@H]2C(=O)N[C@@H](CCCNC(=N)N)C(=O)NCC(N)=O)NC(=O)[C@H](CC(N)=O)NC1=O` [L-Trp (For)] (W(For)FVNCPRG-NH2; linker N-5 via X1) is 0.84 µM.
